Reference: patent publication US4629683A, “Processing silver halide photographic material with blocked agent and hydroxylamine” (Fuji Photo Film Co., Ltd., priority 1983, dated 1986)

Assays:
[1] = Acceleration effect of hydroxylamine upon release of antifoggant from precursor (HPLC, half-life); type: physicochemical; design: key to Acceleration Effect: ratio of half-life without hydroxylamine to half-life with it; settings: for change in releasing speed due to addition of hydroxylamine: in words, pH 10.0 and 11.0; for t1/2 Hydroxylamine Absent / t1/2 Hydroxylamine Present: release of antifoggant
Protocol: Measurement of Acceleration Effect of Hydroxylamine upon Release of Antifoggant from Precursor Thereof
(§1) The resulting solution was added to a mixture of 16 ml of acetonitrile and 20 ml of Britton-Robinson buffer solution (Britton-Robinson buffer solution can be prepared by mixing phosphoric acid, boric acid, acetic acid and sodium hydroxide, and of which pH can be adjusted within a pH range of 1.81 to 11.98), and allowed to react (wherein the pH of the solution was controlled by the buffer solution). After a definite time, acetic acid was added to lower the pH of the reaction mixture to 6.25 and thereby the reaction stopped. The antifoggant released was determined using high-speed liquid chromatography and therefrom the rate constant of the pseudo first-order reaction and, further, the half-life t1/2 were evaluated.
(§2) The acceleration effect of hydroxylamine was determined by comparison of the half-life value in the hydroxylamine present present case and that in the hydroxylamine-absent case and, further, compared with effects of known precursors of the kind which release antifoggants without ring-cleavage (Comparison Precursor (A-1) and Comparison Precursor (A-2)).

[2] = Acceleration effect of hydroxylamine upon release of pyrazolidones from precursors (half-life); type: physicochemical; settings: for Acceleration Effect: pH 10.0, half-life hydroxylamine absent vs present; for t1/2 Hydroxylamine Absent / t1/2 Hydroxylamine Present: release of pyrazolidones; for t1/2 Hydroxylamine Absent: pH 10.0, hydroxylamine absent; for t1/2 Hydroxylamine Present: pH 10.0, hydroxylamine present
Protocol: as §1, §2
Measurement of Acceleration Effect on Hydroxylamine upon Release of Pyrazolidones from Precursors Thereof
The acceleration effects of hydroxylamine upon release of pyrazolidones were determined in the same way as in Example 1, and the results obtained are shown in Table 2 below.

[3] = pH 10.0, half-life hydroxylamine absent vs present
[4] = pH 11.0, half-life hydroxylamine absent vs present
[5] = pH 10.0, hydroxylamine present (3.8×10^-4 mole)
[6] = pH 11.0, hydroxylamine present (3.8×10^-4 mole)

| Structure (SMILES) | change in releasing speed due to addition of hydroxylamine [1] | Acceleration Effect [1, 3] | Acceleration Effect [1, 4] | t1/2 Hydroxylamine Absent ([1]; pH 10.0, hydroxylamine absent) | t1/2 Hydroxylamine Present [1, 5] | t1/2 Hydroxylamine Absent ([1]; pH 11.0, hydroxylamine absent) | t1/2 Hydroxylamine Present [1, 6] | Acceleration Effect [2] | t1/2 Hydroxylamine Absent [2] | t1/2 Hydroxylamine Present [2] |
| --- | --- | --- | --- | --- | --- | --- | --- | --- | --- | --- |
| CC(CC#N)Sc1nnnn1-c1ccccc1 (centres unmarked) [Comparison Precursor (A-2), reference compound] | reduced the releasing speed rather than accelering it, or hardly showed any appreciable change in the releasing speed | 1.1 | 1.1 | 25,000 sec | 23,000 sec | 2,900 sec | 2,700 sec |  |  |  |
| O=C1c2ccccc2C(=O)N1CN1C(=O)CCN1c1ccccc1 [Compound (I)-(13), 1-phenyl-2-(N-phthalimidomethyl)-3-pyrazolidinone] |  |  |  |  |  |  |  | 3.6 | 9,400 sec | 2,600 sec |
| CN1C(=O)c2cccc(N(C)C(=O)OC3=NN(c4ccccc4)CC3(C)CO)c2C1=O (centres unmarked) [(IV)-(5)] |  |  |  |  |  |  |  | 6.3 | 5,600 sec | 880 s |
| O=C1OC(N2C(=O)CCN2c2ccccc2)c2ccc([N+](=O)[O-])cc21 (centres unmarked) [(III)-(7)] |  |  |  |  |  |  |  | 29 | 13,000 sec | 450 s |
| O=C1CC(Sc2nnnn2-c2ccccc2)C(=O)N1c1ccccc1 (centres unmarked) [Comparison Precursor (A-1), reference compound] | reduced the releasing speed rather than accelering it, or hardly showed any appreciable change in the releasing speed | 0.61 | 0.82 | 2,600 sec | 4,200 sec | 310 s | 380 s |  |  |  |
| O=C1OC(Sc2nnnn2-c2ccccc2)(c2ccccc2)c2ccc([N+](=O)[O-])cc21 (centres unmarked) [(III)-(14)] |  | 27 | 25 | 9,000 sec | 340 s | 980 s | 39 s |  |  |  |
| CN1C(=O)c2cccc(N(C)C(=O)Sc3nnnn3-c3ccccc3)c2C1=O [(IV)-(2)] |  | 5.0 | 4.1 | 3,500 sec | 700 s | 420 s | 100 s |  |  |  |
| CN(C(=O)Sc1nnnn1-c1ccccc1)c1cccc2c1COC2=O [(V)-(1)] |  | 25 | 27 | 53,000 sec | 2,100 sec | 6,200 sec | 230 s |  |  |  |
| CNC(=O)Nc1cccc(-n2nnnc2SCN2C(=O)c3ccccc3S2(=O)=O)c1 [(I)-(16)] |  | 35 | 18 | 4,100 sec | 120 s | 490 s | 27 s |  |  |  |
| O=C1OC(Sc2nnnn2-c2ccccc2)c2ccccc21 (centres unmarked) [(III)-(1)] |  | 29 | 30 | 27,000 sec | 960 s | 3,300 sec | 110 s |  |  |  |
| CC1(C)CN(c2ccccc2)N(CN2C(=O)c3ccccc3S2(=O)=O)C1=O [(I)-(19)] |  |  |  |  |  |  |  | 19 | 7,200 sec | 370 s |
| O=C1c2ccccc2S(=O)(=O)N1CSc1nnnn1-c1ccccc1 [(I)-(15)] |  | 37 | 16 | 3,700 sec | 100 s | 470 s | 29 s |  |  |  |
| O=C1c2ccccc2C(=O)N1COC1=NN(c2ccccc2)CC1 [Compound (I)-(14), 1-phenyl-3-(N-phthalimidomethyloxy)-2-pyrazoline] |  |  |  |  |  |  |  | 8.2 | 3,200 sec | 390 s |
| O=C1c2ccc([N+](=O)[O-])cc2C(=O)N1CSc1nnnn1-c1ccccc1 [(I)-(10)] |  | 8.1 | 3.0 | 320 s | 38 s | 37 s | 12 s |  |  |  |
| O=C1CCN(c2ccccc2)N1CN1C(=O)c2ccccc2S1(=O)=O [Compound (I)-(18), N-(1-phenyl-3-pyrazolidinone-2-ylmethyl)saccharin] |  |  |  |  |  |  |  | 21 | 9,300 sec | 440 s |
| O=C1CCC(=O)N1CSc1nnnn1-c1ccccc1 [(II)-(1)] |  | 5.2 | 2.5 | 5,700 sec | 1,200 sec | 650 s | 260 s |  |  |  |
